Laboratory results reported in PubChem BioAssay (NCI).
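Exposure lasted 48 hours, with cells grown in 96-well plates and compounds tested at five concentrations. GI50 is the concentration that inhibits growth by half. TGI: concentration producing complete growth inhibition.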

Legend:
Test in all cases: NCI anticancer screen, dose series, 48 h
COLO 205 colon = tested on: COLO 205 colon
HCC-2998 colon = tested on: HCC-2998 colon
HL-60(TB) leukemia = tested on: HL-60(TB) leukemia
HOP-62 NSCLC = tested on: HOP-62 NSCLC
KM12 colon = tested on: KM12 colon
M14 melanoma = tested on: M14 melanoma
MALME-3M melanoma = tested on: MALME-3M melanoma
MOLT-4 leukemia = tested on: MOLT-4 leukemia
OVCAR-5 ovarian = tested on: OVCAR-5 ovarian
OVCAR-8 ovarian = tested on: OVCAR-8 ovarian
SK-MEL-2 melanoma = tested on: SK-MEL-2 melanoma
SK-MEL-5 melanoma = tested on: SK-MEL-5 melanoma
SW-620 colon = tested on: SW-620 colon

| SMILES | TGI (COLO 205 colon) [µM] | TGI (HCC-2998 colon) [µM] | TGI (HL-60(TB) leukemia) [µM] | TGI (HOP-62 NSCLC) [µM] | TGI (KM12 colon) [µM] | TGI (M14 melanoma) [µM] | TGI (MALME-3M melanoma) [µM] | TGI (MOLT-4 leukemia) [µM] | TGI (OVCAR-5 ovarian) [µM] | TGI (OVCAR-8 ovarian) [µM] | TGI (SK-MEL-2 melanoma) [µM] | TGI (SK-MEL-5 melanoma) [µM] | TGI (SW-620 colon) [µM] | GI50 (COLO 205 colon) [µM] | GI50 (HL-60(TB) leukemia) [µM] | GI50 (HOP-62 NSCLC) [µM] | GI50 (KM12 colon) [µM] | GI50 (OVCAR-8 ovarian) [µM] | GI50 (SK-MEL-5 melanoma) [µM] | GI50 (SW-620 colon) [µM] |
| --- | --- | --- | --- | --- | --- | --- | --- | --- | --- | --- | --- | --- | --- | --- | --- | --- | --- | --- | --- | --- |
| CC(C)C(NCc1c(O)ccc2c(-c3ccccc3)cc(=O)oc12)C(=O)O (stereo not given) | > 100 | > 100 | > 100 | > 100 | > 100 | > 100 | > 100 | > 100 | > 100 | > 100 | > 100 | > 100 | > 100 |  |  |  |  |  |  |  |
| O=c1ccn(C2OC(CN(O)CCC3C(CO)OC(n4ccc(=O)[nH]c4=O)C3O)C(O)C2O)c(=O)[nH]1 (stereo not given) | > 100 | > 100 | > 100 | > 100 | > 100 | > 100 | > 100 | > 100 | > 100 | > 100 | > 100 | > 100 | > 100 |  |  |  |  |  |  |  |
| Cc1cc2c(cc1Cl)SC(NNc1ccc([N+](=O)[O-])cc1)=NS2(=O)=O | > 10 | > 10 | > 10 | > 10 | > 10 | > 10 | > 10 | > 10 | > 10 | > 10 | > 10 | > 10 | > 10 |  |  |  |  |  |  |  |
| C=C(C)C12CC3CC/C(=N/O)C(C1)C3(N1CCOCC1)C/C2=N/O (stereo not given) | > 100 | > 100 | > 100 | > 100 | > 100 | > 100 | > 100 | > 100 | > 100 | > 100 | > 100 | > 100 | > 100 |  |  |  |  |  |  |  |
| CCc1cc2c(oc3cc(C)ccc32)c(=O)n1C |  | > 10 | > 10 |  | > 10 | > 10 | > 10 | > 10 | > 10 | > 10 | > 10 |  | > 10 |  |  |  |  |  |  |  |
| N#Cc1c(N2CCOCC2)[nH]c(=O)c(C(c2c(Cl)cccc2Cl)c2c(O)c(C#N)c(N3CCOCC3)[nH]c2=O)c1O | 26.7 | 27.5 | 29.3 | 79.3 | 32.7 | 42.9 | 26.8 | 36.2 | 31.9 | 34.1 | 39.5 | 35.4 | 36.8 |  |  |  |  |  |  |  |
| S=c1[nH]nc(NNc2ccccc2)n1Nc1ccccc1 | > 37.6 | > 100 | 57.2 | > 100 | > 100 | > 100 | > 100 |  | > 100 | > 100 | > 100 | > 100 | > 100 |  |  |  |  |  |  |  |
| COc1ccc(C(=O)Nc2ccc3oc(-c4ccccc4)nc3c2)cc1 | > 100 | > 100 | > 100 | > 100 | > 100 | > 100 | > 100 | > 100 | > 100 | 88.5 | > 100 | > 100 | > 100 |  |  |  |  |  |  |  |
| CCOP(=O)(OCC)/C(C#N)=C/c1c[nH]c2ccccc12 | > 100 | > 100 | > 100 | > 100 | > 100 | > 100 | > 100 |  | > 100 | > 100 | > 100 | > 100 | > 100 |  |  |  |  |  |  |  |
| CC1OC(OC2C(Oc3cc(O)c4c(c3)O[C@H](c3ccc(O)cc3)CC4=O)OC(CO)C(O)C2O)C(O)C(O)C1O (stereo not given in full) | > 100 | > 100 | > 100 | > 100 | > 100 | > 100 | > 100 | > 100 | > 100 | > 100 | > 100 | > 100 | > 100 |  |  |  |  |  |  |  |
| COc1ccc2c(c1)CCC(OS(=O)(=O)CC13CCC(CC1=O)C3(C)C)C2=O (stereo not given) | 91.9 | 50.9 | 47.5 | 70.8 | 41.1 | > 100 | > 100 | 55.9 | > 100 | 38.6 | 55.8 | 39.2 | 69.7 |  |  |  |  |  |  |  |
| C=CCn1c(-c2ccc(-c3cs/c(=N\N=O)n3CC=C)cc2)cs/c1=N\N=O | > 100 | > 100 | > 100 | > 100 | > 100 | > 100 | > 100 | > 100 | > 100 | > 100 | > 100 | > 100 | > 100 |  |  |  |  |  |  |  |
| CC(=O)c1sc(=N)n(-c2c(C)cccc2C)c1C | > 100 | > 100 | > 100 | > 100 | > 100 | > 100 | > 100 | > 100 | > 100 |  | > 100 | > 100 | > 100 |  |  |  |  |  |  |  |
| CC1=C(C(=O)OC(C)C)C(c2ccccc2C(F)(F)F)C(C(=O)OC(CO[N+](=O)[O-])CO[N+](=O)[O-])=C(C)N1 (stereo not given) | 63.5 | > 100 | > 100 | 29.5 | 18.5 | 23.9 | 33 | 9.79 | 46.8 |  | 47.1 | 11.4 | 23.3 |  |  |  |  |  |  |  |
| O=C(CCN1CCOCC1)C(=Cc1ccccc1)C(=O)CCN1CCOCC1 | 6.97 | 26.9 | 3.52 | 37.5 | 13 |  | 4.64 | 3.09 | 33.6 | 9.88 | 22.6 | 18.2 | 4.29 |  |  |  |  |  |  |  |
| C/C(=N\NC(=S)NCc1ccccc1)c1nc2ncccc2[nH]1 | 34.4 | 68.4 | > 100 | 26.2 | 21.5 | 19.8 | 34.6 | 17.5 | 30.2 | 26.8 | 36 | 14.6 | > 100 |  |  |  |  |  |  |  |
| Nc1nc(N)c2nc(CNc3ccc(C(=O)NC(CCCCNC(=O)c4ccccc4C(=O)O)C(=O)O)cc3)cnc2n1 (stereo not given) | > 100 | > 100 | > 100 | > 100 | > 100 | > 100 | > 100 | > 100 | > 100 | > 100 | > 100 | > 100 | > 100 | 0.537 | 0.00244 | 0.0305 | 0.00485 | 0.0059 | 0.0913 | 0.00342 |
| C[N+](C)=c1nc(N2CCc3ccccc3C2)ss1 | > 100 | > 100 | > 100 | > 100 | > 100 | > 100 | > 100 | > 100 |  | > 100 | > 100 | > 100 | > 100 |  |  |  |  |  |  |  |
| CC(=O)OCC(Br)C1(C)CCC(C(C)(C)Br)O1 (stereo not given) | > 100 | > 100 | > 100 | > 100 | > 100 | > 100 | > 100 | > 100 | > 100 |  | > 100 | > 100 | > 100 |  |  |  |  |  |  |  |
| Cc1nc2c(=O)n3c4c(cccc4c2o1)CCC3 | > 100 | > 100 | > 100 | > 100 | > 100 | > 100 | > 100 | > 100 | > 100 | > 100 | > 100 | > 100 | > 100 |  |  |  |  |  |  |  |
| Cc1cc(-c2nc3cccc(F)c3s2)ccc1N | > 100 | > 100 | > 100 | > 100 | > 100 | > 100 | > 100 | > 96.1 | > 100 | > 100 | > 100 | > 100 | > 100 |  |  |  |  |  |  |  |
| N#CCCN(CCN(CCC#N)C(=O)Nc1ccccc1)C(=O)Nc1ccccc1 | > 100 | > 100 | > 100 | 55 |  | > 100 | > 100 | > 100 | > 100 | > 100 | > 100 | > 100 | > 100 |  |  |  |  |  |  |  |
| CC(C)(C)C1CCC2c3c([nH]c4ccccc34)C3C(=O)N(c4ccc5c(c4)C(=O)c4ccccc4C5=O)C(=O)C3C2C1 (stereo not given) | > 100 | > 100 | > 100 | > 100 | > 100 | > 100 | > 100 | > 100 | > 100 | > 100 | > 100 | > 100 | > 100 |  |  |  |  |  |  |  |
| COc1ccccc1CNC(=O)[C@H](Cc1ccc(O)cn1)NC(C)=O | > 100 | > 100 | > 100 | > 100 | > 100 | > 100 | > 100 |  | > 100 |  | > 100 | > 100 | > 100 |  |  |  |  |  |  |  |
| CCCC[C@H]1CCN2C[C@@H](O)[C@@H](O)[C@H]2[C@@H]1O | > 100 | > 100 | > 100 |  | > 100 | > 100 | > 100 | > 100 | > 100 | > 100 | > 100 | > 100 | > 100 |  |  |  |  |  |  |  |
| COc1ccc(NC2CC(C)N(C(=O)c3ccccc3)O2)cc1 (stereo not given) | > 10 | > 10 | > 10 | > 10 |  | > 10 | > 10 | > 10 | > 10 | > 10 | > 10 | > 10 | > 10 |  |  |  |  |  |  |  |
